Measurements: US20110039901A1, “PROCESS FOR PREPARING A CRYSTALLINE FORM COMPOUND OF 3-BENZYL-2-METHYL-2,3,3a,4,5,6,7,7a-OCTAHYDROBENZO[d]ISOXAZOL-4-ONE” (Abiogen Pharma S.P.A., priority 2008, published 2011)

Experiment: stability of the hydrochloride salt at elevated temperature
Assay type: physicochemical
Conditions: at temperatures above 30° C.

Compound: CN1OC2CCCC(=O)C2C1Cc1ccccc1.Cl (stereo not shown) [hydrochloride salt of BTG 1640]
- stability at temperature: unstable
